Results from PubChem BioAssay AID330 (DTP/NCI, 2004).
Where “and” joins values, the source holds several entries; their conditions need not be identical. Equal entries are not always repeated. Inconclusive results and toxic doses are left out. The calls were made as follows: active = survival T/C of 150% or more; inactive = T/C below 125% in these data.

Test system: P388 leukemia ip, CD2F1 mice, survival T/C
Test: NCI In Vivo Anticancer Drug Screen. Data for tumor model P388 Leukemia (intraperitoneal) in CD2F1 (CDF1) mice
Details: endpoint: median survival time, higher = longer survival
How it was run: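 Mice carrying the transplanted tumor received test compound or vehicle. Survival was recorded in each group, and the value is the treated-group measurement divided by that of the vehicle-treated control group.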

[1] = dose: 60.0 mg/kg/injection, schedule: Q01DX005 (ip), vehicle: Klucel (hydroxypropylcellulose) (HPC)
[2] = dose: 120.0 mg/kg/injection, schedule: Q01DX005 (ip), vehicle: Klucel (hydroxypropylcellulose) (HPC)
[3] = dose: 240.0 mg/kg/injection, schedule: Q01DX005 (ip), vehicle: Klucel (hydroxypropylcellulose) (HPC)
[4] = dose: 12.5 mg/kg/injection, schedule: Q01DX009 (ip), vehicle: saline with Tween-80
[5] = dose: 50.0 mg/kg/injection, schedule: Q01DX005 (ip), vehicle: saline with Tween-80
[6] = dose: 100.0 mg/kg/injection, schedule: Q01DX005 (ip), vehicle: saline with Tween-80
[7] = dose: 200.0 mg/kg/injection, schedule: Q01DX005 (ip), vehicle: saline with Tween-80
[8] = dose: 60.0 mg/kg/injection, schedule: Q01DX005 (ip), vehicle: saline with Tween-80
[9] = dose: 120.0 mg/kg/injection, schedule: Q01DX005 (ip), vehicle: saline with Tween-80
[10] = dose: 240.0 mg/kg/injection, schedule: Q01DX005 (ip), vehicle: saline with Tween-80
[11] = dose: 25.0 mg/kg/injection, schedule: Q01DX009 (ip), vehicle: saline with Tween-80
[12] = dose: 50.0 mg/kg/injection, schedule: Q01DX009 (ip), vehicle: saline with Tween-80
[13] = dose: 30.0 mg/kg/injection, schedule: Q01DX005 (ip), vehicle: saline with Tween-80
[14] = dose: 6.25 mg/kg/injection, schedule: Q04DX003 (ip), vehicle: saline
[15] = dose: 12.5 mg/kg/injection, schedule: Q04DX003 (ip), vehicle: saline
[16] = dose: 25.0 mg/kg/injection, schedule: Q04DX003 (ip), vehicle: saline
[17] = dose: 15.0 mg/kg/injection, schedule: Q01DX005 (ip), vehicle: Klucel (hydroxypropylcellulose) (HPC)
[18] = dose: 30.0 mg/kg/injection, schedule: Q01DX005 (ip), vehicle: Klucel (hydroxypropylcellulose) (HPC)

Measured: T/C

CC(C)(C)c1cc(C(O)(C(F)(F)F)C(F)(F)F)c(S)c(C(O)(C(F)(F)F)C(F)(F)F)c1
inactive: dose: 3.12 mg/kg/injection, schedule: Q01DX005 (ip), vehicle: suspension in saline 103 % of control | dose: 6.25 mg/kg/injection, schedule: Q01DX005 (ip), vehicle: suspension in saline 103 % of control | dose: 12.5 mg/kg/injection, schedule: Q01DX005 (ip), vehicle: suspension in saline 103 % of control | dose: 25.0 mg/kg/injection, schedule: Q01DX005 (ip), vehicle: suspension in saline 110 % of control and 112 % of control

O=C(O)c1cccc(-c2c3ccc(=O)cc-3oc3cc(O)ccc23)c1
inactive: [1] 104 % of control | [2] 113 % of control | [3] 110 % of control

CCOC(=O)c1c(C(=O)OCC)c(C)n(/N=N/n2c(C)c(C(=O)OCC)c(C(=O)OCC)c2C)c1C
inactive: dose: 50.0 mg/kg/injection, schedule: Q01DX005 (ip), vehicle: Klucel (hydroxypropylcellulose) (HPC) 103 % of control | dose: 100.0 mg/kg/injection, schedule: Q01DX005 (ip), vehicle: Klucel (hydroxypropylcellulose) (HPC) 87 % of control

NC(=S)c1ccc(N=Cc2ccccn2)cc1
inactive: dose: 25.0 mg/kg/injection, schedule: Q01DX001 (ip), vehicle: Klucel (hydroxypropylcellulose) (HPC) 100 % of control | dose: 50.0 mg/kg/injection, schedule: Q01DX001 (ip), vehicle: Klucel (hydroxypropylcellulose) (HPC) 100 % of control | dose: 100.0 mg/kg/injection, schedule: Q01DX001 (ip), vehicle: Klucel (hydroxypropylcellulose) (HPC) 103 % of control and 106 % of control | dose: 200.0 mg/kg/injection, schedule: Q01DX001 (ip), vehicle: Klucel (hydroxypropylcellulose) (HPC) 102 % of control | dose: 400.0 mg/kg/injection, schedule: Q01DX001 (ip), vehicle: Klucel (hydroxypropylcellulose) (HPC) 105 % of control

OC(/C=C\CC(O)(C(F)(F)F)C(F)(F)F)(C(F)(F)F)C(F)(F)F
inactive: dose: 3.12 mg/kg/injection, schedule: Q01DX009 (ip), vehicle: saline 100 % of control | dose: 6.25 mg/kg/injection, schedule: Q01DX009 (ip), vehicle: saline 106 % of control | [4] 91 % of control | dose: 12.5 mg/kg/injection, schedule: Q01DX009 (ip), vehicle: saline 93 % of control

COc1cccc(-c2nc(SCC(N)=O)[nH]c(=O)c2C#N)c1
inactive: [5] 112 % of control | [6] 98 % of control | [7] 98 % of control

O/N=C(\c1ccccc1)C1c2ccccc2-c2ccccc21
inactive: [8] 94 % of control | [9] 94 % of control | [10] 94 % of control

COc1ccc(Br)cc1/C=C/[N+](=O)[O-]
inactive: [4] 113 % of control | [11] 122 % of control

CC(=O)Nc1ccc(S(=O)(=O)OC(C)C)cc1
inactive: dose: 100.0 mg/kg/injection, schedule: Q04DX003 (ip), vehicle: saline 105 % of control | dose: 200.0 mg/kg/injection, schedule: Q04DX003 (ip), vehicle: saline 113 % of control | dose: 400.0 mg/kg/injection, schedule: Q04DX003 (ip), vehicle: saline 118 % of control

CCNC(=O)Nc1nc2ccccc2[nH]1
inactive: [4] 103 % of control | [11] 100 % of control | [12] 107 % of control

CN(C)CC[Si](C)(C)N(C)C
inactive: dose: 60.0 mg/kg/injection, schedule: Q01DX005 (ip), vehicle: saline 107 % of control | dose: 120.0 mg/kg/injection, schedule: Q01DX005 (ip), vehicle: saline 102 % of control

Cc1nnc2c3nccnc3c(Cl)nn12
inactive: dose: 15.0 mg/kg/injection, schedule: Q01DX005 (ip), vehicle: saline with Tween-80 105 % of control | [13] 112 % of control | [8] 102 % of control and 105 % of control

CCCCOC(=O)/C=C(\I)C(=O)OCCCC
inactive: dose: 6.25 mg/kg/injection, schedule: Q01DX009 (ip), vehicle: saline with Tween-80 101 % of control and 110 % of control and 92 % of control | [4] 112 % of control and 114 % of control and 96 % of control | [11] 113 % of control and 120 % of control and 124 % of control | [12] 110 % of control and 111 % of control and 118 % of control

CC1=C(C(=O)Nc2cc(C)ccc2C)C(c2cccc([N+](=O)[O-])c2)C(C(=O)Nc2cc(C)ccc2C)=C(C)N1
inactive: [1] 88 % of control | [2] 89 % of control

COc1cccc(C(Nc2ncccn2)c2cc3c(cc2O)OCO3)c1O (configuration not stated)
inactive: [8] 103 % of control | [9] 94 % of control | [10] 94 % of control

CC1CN2C(=O)NC(=O)C1(c1ccccc1)C2=O (configuration not stated)
inactive: dose: 50.0 mg/kg/injection, schedule: Q01DX009 (ip), vehicle: Klucel (hydroxypropylcellulose) (HPC) 100 % of control | dose: 100.0 mg/kg/injection, schedule: Q01DX009 (ip), vehicle: Klucel (hydroxypropylcellulose) (HPC) 93 % of control | dose: 200.0 mg/kg/injection, schedule: Q01DX009 (ip), vehicle: Klucel (hydroxypropylcellulose) (HPC) 97 % of control

Clc1c2ccccc2nc2ccccc12
inactive: [5] 98 % of control | [6] 91 % of control | [7] 98 % of control

CN1NC(C)(c2cccnc2)SC1=S (configuration not stated)
inactive: [12] 95 % of control | dose: 100.0 mg/kg/injection, schedule: Q01DX009 (ip), vehicle: saline with Tween-80 100 % of control | dose: 200.0 mg/kg/injection, schedule: Q01DX009 (ip), vehicle: saline with Tween-80 97 % of control

CCCCCCCCCCCCCCCC[N+](C)(C)Cc1ccccc1
inactive: [14] 98 % of control | [15] 98 % of control | [16] 100 % of control

CC1C(=O)OC2C1CCC1(C)C3(C)C(=O)C=CC213 (configuration not stated)
inactive: [17] 97 % of control | [18] 101 % of control | [1] 104 % of control and 93 % of control

COC1=CC(C)C2CC3OC(O)CC4C(C)=C(OC)C(=O)C(C2(C)C1=O)C34C (configuration not stated)
inactive: [1] 94 % of control | [2] 94 % of control | [3] 89 % of control

CN(C)CCCC[N+](C)(C)Cc1ccc(C[N+](C)(C)CCCC[N+](C)(C)Cc2ccc(CCl)cc2)cc1
inactive: dose: 3.12 mg/kg/injection, schedule: Q04DX003 (ip), vehicle: saline 100 % of control | [14] 94 % of control | [15] 100 % of control and 111 % of control and 96 % of control | [16] 100 % of control and 113 % of control

Cc1c(N)ccc(O)c1C
inactive: [4] 120 % of control | [11] 105 % of control | [12] 100 % of control

O=NNc1ccc(S(=O)(=O)c2ccc(NN=O)cc2)cc1
inactive: dose: 3.12 mg/kg/injection, schedule: Q01DX009 (ip), vehicle: water 91 % of control | dose: 6.25 mg/kg/injection, schedule: Q01DX009 (ip), vehicle: water 110 % of control | dose: 12.5 mg/kg/injection, schedule: Q01DX009 (ip), vehicle: water 119 % of control | dose: 25.0 mg/kg/injection, schedule: Q01DX009 (ip), vehicle: water 116 % of control | dose: 37.5 mg/kg/injection, schedule: Q01DX009 (ip), vehicle: water 122 % of control | dose: 50.0 mg/kg/injection, schedule: Q01DX009 (ip), vehicle: water 119 % of control | dose: 75.0 mg/kg/injection, schedule: Q01DX009 (ip), vehicle: water 113 % of control

CCOC(=O)/C=C/c1c(Cl)n(C)c(=O)n(C)c1=O
inactive: dose: 7.5 mg/kg/injection, schedule: Q01DX005 (ip), vehicle: Klucel (hydroxypropylcellulose) (HPC) 102 % of control | [17] 100 % of control | [18] 100 % of control

OC(c1cc(-c2ccc(Cl)cc2)nc2ccccc12)C1CCCCN1 (configuration not stated)
inactive: [5] 105 % of control | [6] 113 % of control

O=C(O)CCCCCCCCC(=O)CCl
inactive: dose: 25.0 mg/kg/injection, schedule: Q01DX009 (ip), vehicle: saline 99 % of control | dose: 50.0 mg/kg/injection, schedule: Q01DX009 (ip), vehicle: saline 115 % of control

CCCCOP(O)(=S)OCCCC.[Ho]
inactive: dose: 66.0 mg/kg/injection, schedule: Q01DX001 (ip), vehicle: saline with Tween-80 100 % of control | dose: 100.0 mg/kg/injection, schedule: Q01DX001 (ip), vehicle: saline with Tween-80 98 % of control | dose: 150.0 mg/kg/injection, schedule: Q01DX001 (ip), vehicle: saline with Tween-80 98 % of control | dose: 200.0 mg/kg/injection, schedule: Q01DX001 (ip), vehicle: saline with Tween-80 90 % of control | dose: 400.0 mg/kg/injection, schedule: Q01DX001 (ip), vehicle: saline with Tween-80 90 % of control

[O-][n+]1ccc(Br)c(/C=C/c2ccccc2)c1
inactive: [13] 101 % of control | [8] 101 % of control | [9] 102 % of control | [10] 101 % of control

Cn1c(=O)c2c(ncn2N)n(C)c1=O
inactive: [1] 111 % of control | [2] 102 % of control | [3] 107 % of control
